The source of these data is patent US8455534B2, “Estrogen receptor modulators and uses thereof” (Aragon Pharmaceuticals, Inc., priority 2010, dated 2013).

The structures appear in SMILES notation.

The test system of one assay is MCF-7 cells. Kind of assay: Breast Cancer Cell Viability Assay (MCF-7, CellTiter-Glo). The class given is cell-based. The conditions noted are these: 5 days' compound exposure; for IC50: Homo sapiens, MCF7, 120 h. Summed up:
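Eleven-point semilog compound series, final 0.3-0.000003 μM, added to overnight-adhered MCF-7 cells (320/well; RPMI, 10% FBS, 20 mM HEPES) for 5 days. Viability read by CellTiter-Glo luminescence, background from medium without cells subtracted, expressed relative to untreated cells.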
Background: In ATP-based viability assays light output follows the ATP content of the culture.

The next assay has as its target T1, ER-α (Homo sapiens, UniProt P03372).
T1 sequence (P03372 1-595): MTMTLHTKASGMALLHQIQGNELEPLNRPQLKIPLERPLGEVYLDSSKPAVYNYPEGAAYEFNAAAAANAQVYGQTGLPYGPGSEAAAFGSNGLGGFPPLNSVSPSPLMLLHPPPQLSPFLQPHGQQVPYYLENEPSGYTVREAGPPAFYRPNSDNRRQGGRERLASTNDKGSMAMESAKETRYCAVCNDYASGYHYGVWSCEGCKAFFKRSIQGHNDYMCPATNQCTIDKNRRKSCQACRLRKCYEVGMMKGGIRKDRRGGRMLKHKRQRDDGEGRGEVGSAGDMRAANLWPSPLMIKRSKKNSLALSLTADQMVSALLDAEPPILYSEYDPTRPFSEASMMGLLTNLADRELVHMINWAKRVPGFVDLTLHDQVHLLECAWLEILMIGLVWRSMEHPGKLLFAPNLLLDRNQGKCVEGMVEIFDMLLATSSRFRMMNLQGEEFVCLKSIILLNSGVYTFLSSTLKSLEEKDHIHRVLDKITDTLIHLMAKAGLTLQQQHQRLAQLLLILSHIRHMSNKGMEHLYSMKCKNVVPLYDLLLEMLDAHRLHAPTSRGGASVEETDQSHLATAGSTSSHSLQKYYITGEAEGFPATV
Kind of assay: Breast Cancer Cell ER-α In Cell Western Assay (SP1). The class given is cell-based. The conditions noted are these: MCF-7 cells, SP1 antibody, 4 or 24 hr post compound addition; for Emax: MCF7, read-out: ER-α In Cell Western Assay (SP1) Max Response; for DC50: read-out: ER-α In Cell Western Assay (SP1) IC50. Summed up: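 ER-α protein levels measured by in-cell western with SP1 antibody, ratioed to DRAQ5 DNA signal and given as percent of untreated controls. Compounds added at 0.3–0.000003 μM final (eleven semilog points) to adherent MCF-7 cells in stripped serum; exposure 4 or 24 h before fixation.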

For `CC/C(=C(/c1ccc(/C=C/C(=O)O)cc1)c1ccc2[nH]ncc2c1)c1ccc(C(F)(F)F)cc1C#N` [Compound 139, (E)-3-(4-((E)-2-(2-Cyano-4-(trifluoromethyl)phenyl)-1-(1H-indazol-5-yl)but-1-en-1-yl)phenyl)acrylic acid], in the assay with MCF-7 cells, the “MCF7 Viability Assay Max Response” value is reported as “++ (++ = a single % value ≧ 40%)” and the IC50 (usually the concentration needed to halve the response being measured) is ≤ 100 nM. At ER-α, the Emax is ≥ 40% and the DC50 is ≤ 100 nM.
As to `CC/C(=C(/c1ccc(/C=C/C(=O)O)cc1)c1ccc2[nH]ncc2c1)c1ccc(Cl)cc1` [Compound 4, (E)-3-(4-((E)-2-(4-Chlorophenyl)-1-(1H-indazol-5-yl)but-1-en-1-yl)phenyl)acrylic acid], in the assay with MCF-7 cells, the “MCF7 Viability Assay Max Response” value is on record as “++ (++ = a single % value ≧ 40%)” and the 50% inhibitory concentration (IC50) is ≤ 100 nM. Besides, the Emax at ER-α was ≥ 40%.
For the compound `CC(C)/C(=C(/c1ccc(/C=C/C(=O)O)cc1)c1ccc2[nH]ncc2c1)c1ccc(F)cc1Cl` [Compound 82, (E)-3-(4-((E)-2-(2-Chloro-4-fluorophenyl)-1-(1H-indazol-5-yl)-3-methylbut-1-en-1-yl)phenyl)acrylic acid], in the assay with MCF-7 cells, the “MCF7 Viability Assay Max Response” value is recorded as “++ (++ = a single % value ≧ 40%)” and the IC50 was ≤ 100 nM. In addition, at ER-α, the Emax is ≥ 40% and the DC50 is ≤ 100 nM.
With `CC/C(=C(/c1ccc(/C=C/C(=O)O)cc1)c1ccc2[nH]ncc2c1)c1ccccc1S(C)(=O)=O` [Compound 98, (E)-3-(4-((E)-1-(1H-Indazol-5-yl)-2-(2-(methylsulfonyl)phenyl)but-1-en-1-yl)phenyl)acrylic acid], in the assay on MCF-7 cells, the “MCF7 Viability Assay Max Response” value is reported as “++ (++ = a single % value ≧ 40%)” and the half-inhibitory concentration (IC50) is ≤ 100 nM. In addition, the Emax at ER-α is ≥ 40%.
Regarding `CC/C(=C(/c1ccc(/C=C/C(=O)O)cc1)c1ccc2[nH]ncc2c1)c1cccc(C)c1` [Compound 10, (E)-3-(4-((E)-1-(1H-Indazol-5-yl)-2-(m-tolyl)but-1-en-1-yl)phenyl)acrylic acid], in the assay on MCF-7 cells, the “MCF7 Viability Assay Max Response” value is reported as “++ (++ = a single % value ≧ 40%)” and the 50% inhibitory concentration (IC50) is ≤ 100 nM. Moreover, on ER-α, the Emax is ≥ 40% and the DC50 is ≤ 100 nM.
For the compound `CC/C(=C(/c1ccc(/C=C/C(=O)O)cc1)c1ccc2c(cnn2C(F)F)c1)c1ccc(F)cc1Cl` [Compound 148, (E)-3-(4-((E)-2-(2-Chloro-4-fluorophenyl)-1-(1-(difluoromethyl)-1H-indazol-5-yl)but-1-en-1-yl)phenyl)acrylic acid], in the assay on MCF-7 cells, the “MCF7 Viability Assay Max Response” value was “++ (++ = a single % value ≧ 40%)” and the IC50 is ≤ 100 nM. Also, on ER-α, the Emax was ≥ 40% and the DC50 is ≤ 100 nM.
`CC/C(=C(/c1ccc(/C=C/C(=O)O)cc1)c1ccc2[nH]ncc2c1)c1ccccc1OC` [Compound 12, (E)-3-(4-((E)-1-(1H-Indazol-5-yl)-2-(2-methoxyphenyl)but-1-en-1-yl)phenyl)acrylic acid]: in the assay with MCF-7 cells, the “MCF7 Viability Assay Max Response” value was “++ (++ = a single % value ≧ 40%)” and the IC50 was ≤ 100 nM. For the same compound, the Emax at ER-α is ≥ 40%.
With `CC/C(=C(/c1ccc(/C=C/C(=O)O)cc1)c1ccc2[nH]ncc2c1)c1ccc(OC)cc1Cl` [Compound 121, (E)-3-(4-((E)-2-(2-Chloro-4-methoxyphenyl)-1-(1H-indazol-5-yl)but-1-en-1-yl)phenyl)acrylic acid], in the assay on MCF-7 cells, the “MCF7 Viability Assay Max Response” value was “++ (++ = a single % value ≧ 40%)” and the concentration for half-maximal inhibition (IC50) was ≤ 100 nM. At ER-α, the Emax was ≥ 40% and the DC50 is ≤ 100 nM.
